Experimental findings from patent publication US9725675B2, “Lipid-soluble formulations containing mixtures of antioxidants” (KEMIN INDUSTRIES, INC., priority 2003, dated 2017) are described below.

Several values for one entry are separate records, joined by “and”; a condition that tells them apart may be missing. Equal entries are not always repeated.

The data set can be described thus: Oil Stability Index (OSI) induction time, AOCS Official Method Cd 12b-92, at 98° C. Conditions: for OSI induction time (h) of formulations based on single antioxidants: 250 ppm of antioxidant formulation (20% active antioxidant in the carrier of Formulation 1), soybean oil, replicates 1-3; for OSI induction time of soybean oil stabilized with synthetic antioxidants: single antioxidants directly dissolved in soybean oil, 98° C., control 14.8 h.

From the text: In order to evaluate the oxidative stability of an oil or fat sample an accelerated method is developed to speed up the oxidation process. […] This method is particularly suited to evaluate the effect of antioxidant stabilization of oils and fats.
Before oils and fats start to oxidize a resistance has to be overcome, after which the oxidation accelerates and becomes very rapid. The length of time before this rapid acceleration of oxidation is a measure of the resistance to oxidation and is commonly referred to as the ‘induction period’. In the Oil Stability Index (OSI method) the oxidative stability and the effect of antioxidant stabilization of oils and fats is determined. A stream of purified air is passed through a sample of oil, which is held in a thermostatic bath. In this experimental test the OSI was carried out at a temperature of 98° C. The effluent air from the oil or fat sample is then bubbled through a vessel containing deionized water. The conductivity of the water is continually monitored. The effluent air contains the volatile organic acids formed upon oxidizing the oil. The Oil Stability Index is defined as the point of maximum change of the rate of oxidation, or mathematically as the second derivative of the conductivity curve. As a consequence the induction point is a measure for the oxidative stability of the oil or fat system. The higher the induction point the higher the oxidative stability of the oil.

`CCCCCCCCOC(=O)c1cc(O)c(O)c(O)c1` [Octyl gallate, octyl gallate]: the “OSI induction time (h) of formulations based on single antioxidants” value (“OSI induction time (h)” for short) is 19.3 h (2×) and 19.5 h. Moreover, the “OSI induction time of soybean oil stabilized with synthetic antioxidants” value (“OSI induction time … with synthetic antioxidants” for short) (250 ppm) worked out at 29.6 h. In addition, the “OSI induction time … with synthetic antioxidants” value (500 ppm) is on record as 38.6 h. In addition, the “OSI induction time … with synthetic antioxidants” value (1000 ppm) worked out at 47.6 h.

Turning to `CCCOC(=O)c1cc(O)c(O)c(O)c1` [Propyl gallate, propyl gallate], the “OSI induction time (h)” value is 19.5 h and 21.5 h and 20.1 h. Also, the “OSI induction time … with synthetic antioxidants” value (250 ppm) stood at 35.8 h. The “OSI induction time … with synthetic antioxidants” value (500 ppm) is on record as 44.5 h. Moreover, for the setting “1000 ppm”, the “OSI induction time … with synthetic antioxidants” value stood at 53.1 h.

Take `COc1ccc(O)c(C(C)(C)C)c1` [BHA, butylated hydroxyanisole]: the “OSI induction time (h)” value was 14.0 h and 14.2 h and 14.5 h. Under “250 ppm”, the “OSI induction time … with synthetic antioxidants” value was found to be 14.0 h. Besides, where the note is “500 ppm”, the “OSI induction time … with synthetic antioxidants” value is listed as 15.5 h. Besides, the “OSI induction time … with synthetic antioxidants” value (1000 ppm) came to 21.5 h.

On to `Cc1cc(C(C)(C)C)c(O)c(C(C)(C)C)c1` [BHT, butylated hydroxyltoluene], for which the “OSI induction time (h)” value is 15.5 h and 15.4 h and 15.0 h. The “OSI induction time … with synthetic antioxidants” value (250 ppm) came out at 17.9 h. Also, under “500 ppm”, the “OSI induction time … with synthetic antioxidants” value worked out at 20 h.

Regarding `O=C(O)c1cc(O)c(O)c(O)c1` [Gallic acid, gallic acid], the “OSI induction time (h)” value was 21.6 h and 20.7 h and 22.0 h. For the same compound, the “OSI induction time … with synthetic antioxidants” value (250 ppm) is reported as 30.6 h. The “OSI induction time … with synthetic antioxidants” value (500 ppm) is reported as 41.8 h. In addition, the “OSI induction time … with synthetic antioxidants” value (1000 ppm) amounted to 47.4 h.
